According to the C3SDB collision cross section collection:

details: [M+H]+; instrument: DT; stepped-field

Row | collision cross section (N2) | Structure (SMILES)
1 | 145.4 Å² | Cn1c(=O)c2c(ncn2C)n(C)c1=O [Caffeine]

same assay, conditions: [M+Na]+; instrument: DT; stepped-field

Row | collision cross section (N2) | Structure (SMILES)
2 | 142.93 Å² | Cn1c(=O)c2c(ncn2C)n(C)c1=O [Caffeine]

details: [M+H]+; instrument: DT; single field, calibrated with Agilent tune mix (Agilent)

Row | collision cross section (N2) | Structure (SMILES)
3 | 140.9 Å² | Cn1c(=O)c2c(ncn2C)n(C)c1=O [Caffeine]

details: [M+2Na-H]+; instrument: DT; stepped-field

Row | collision cross section (N2) | Structure (SMILES)
4 | 281.53 Å² | CCCCC/C=C\C/C=C\C/C=C\C/C=C\CCCCCC(=O)OC[C@H](COP(=O)(O)OC[C@H](N)C(=O)O)OC(=O)CCCCCCCCCCCCC [PS(36:04)]
5 | 271.74 Å² | CCCCC/C=C\C/C=C\CCCCCCCCCC(=O)O[C@H](COC(=O)CCCCCCC/C=C\CCCCCC)COP(=O)(O)O [PA(36:03)]
6 | 298.43 Å² | CC/C=C\C/C=C\C/C=C\C/C=C\C/C=C\CCCC(=O)OC[C@H](COP(=O)(O)OC[C@H](N)C(=O)O)OC(=O)CCCCCCCCCCCCCCCCCCCC [PS(41:05)]
7 | 296.35 Å² | CC/C=C\C/C=C\C/C=C\C/C=C\C/C=C\C/C=C\CCC(=O)O[C@H](COC(=O)CCCCCCCCC/C=C\CCCCCCCC)COP(=O)(O)OC[C@H](N)C(=O)O [PS(42:07)]
8 | 271.16 Å² | CC/C=C\C/C=C\C/C=C\CCCCCCCC(=O)O[C@H](COC(=O)CCCCCCCCCCCCCCC)COP(=O)(O)OCCN [PE(34:03)]
9 | 295.61 Å² | CCCCC/C=C\C/C=C\C/C=C\C/C=C\CCCCCC(=O)O[C@H](COC(=O)CCCCCCC/C=C\C/C=C\CCCCC)COP(=O)(O)OC[C@H](N)C(=O)O [PS(40:06)]
10 | 287.95 Å² | CCCCCCCC/C=C\CCCCCCCC(=O)O[C@H](COC(=O)CCCCCCCCCCCCCCCCC)COP(=O)(O)OC[C@H](N)C(=O)O [PS(36:01)]
11 | 299.44 Å² | CCCCC/C=C\C/C=C\CCCCCCCCCCCC(=O)O[C@H](COC(=O)CCCCCCCCCCCCCCCCC)COP(=O)(O)OC[C@H](N)C(=O)O [PS(40:02)]
12 | 279.47 Å² | CCCCC/C=C\C/C=C\C/C=C\CCCCC(=O)O[C@H](COCCCCCCCCCCCCCCCCCC)COP(=O)(O)OCCN [PE(o36:03)]
13 | 283.55 Å² | CCCCC/C=C\C/C=C\C/C=C\CCCCCCC(=O)O[C@H](COC(=O)CCCCCCC/C=C\C/C=C\CCCCC)COP(=O)(O)OCCN [PE(38:05)]
14 | 303.11 Å² | CC/C=C\C/C=C\C/C=C\C/C=C\C/C=C\C/C=C\CCC(=O)O[C@H](COC(=O)CCCCCCCCC/C=C\CCCCCCCCCC)COP(=O)(O)OC[C@H](N)C(=O)O [PS(44:07)]
15 | 277.05 Å² | CCCCCCCC/C=C\C/C=C\CCCCC(=O)OC[C@H](COP(=O)(O)OCCN)OC(=O)CCCC/C=C\C/C=C\CCCCCCCC [PE(36:04)]
16 | 306.87 Å² | CCCCC/C=C\C/C=C\C/C=C\C/C=C\CCCCCC(=O)OC[C@H](COP(=O)(O)OC[C@H](N)C(=O)O)OC(=O)CCCCCCCCC/C=C\CCCCCCCCCC [PS(44:05)]
17 | 290.15 Å² | CC/C=C\C/C=C\C/C=C\CCCCCCCC(=O)O[C@H](COC(=O)CCCCC/C=C\C/C=C\C/C=C\C/C=C\CCCCC)COP(=O)(O)OC[C@H](N)C(=O)O [PS(40:07)]
18 | 287.97 Å² | CC/C=C\C/C=C\C/C=C\C/C=C\C/C=C\CCCC(=O)O[C@H](COC(=O)CCCCCC/C=C\C/C=C\C/C=C\CCCCC)COP(=O)(O)OC[C@H](N)C(=O)O [PS(40:08)]
19 | 287.86 Å² | CCCCC/C=C\C/C=C\C/C=C\C/C=C\CCCCCC(=O)O[C@H](COC(=O)CCCCCCC/C=C\C/C=C\CCCCC)COP(=O)(O)OCCN [PE(40:06)]
20 | 278.13 Å² | CCCCC/C=C\C/C=C\C/C=C\C/C=C\CCCC(=O)O[C@H](COCCCCCCCCCCCCCCCC)COP(=O)(O)OCCN [PE(o36:04)]
21 | 268.35 Å² | CCCC/C=C\CCCCCCCC(=O)O[C@H](COCCCCCCCCCCCCCCCCCC)COP(=O)(O)OCCN [PE(o32:01)]
22 | 293.52 Å² | CCCCC/C=C\C/C=C\C/C=C\C/C=C\CCCCCC(=O)O[C@H](COCCCCCCCCCCCCCCCCCC)COP(=O)(O)OCCN [PE(o40:04)]
23 | 273.55 Å² | CCCCC/C=C\C/C=C\CCCCCCCC(=O)O[C@H](COCCCCCCCCCCCCCCCC)COP(=O)(O)OCCN [PE(o34:02)]
24 | 279.57 Å² | CCCC/C=C\CCCCCCCC(=O)OC[C@H](COP(=O)(O)OCCN)OC(=O)CCCCCCCCCCCCCCCCCCCC [PE(35:01)]
25 | 292.46 Å² | CCCCCC/C=C\CCCCCCCC(=O)OC[C@H](COP(=O)(O)OC[C@H](N)C(=O)O)OC(=O)CCCCCCCCC/C=C\CCCCCCCCCC [PS(38:02)]
26 | 279.8 Å² | CCCCC/C=C\C/C=C\CCCCCCCCCC(=O)O[C@H](COC(=O)CCCCCCC/C=C\CCCCCCCC)COP(=O)(O)O [PA(38:03)]

same assay, conditions: [M+Cl]-; instrument: DT; stepped-field

Row | collision cross section (N2) | Structure (SMILES)
27 | 298.46 Å² | CCCCC/C=C\C/C=C\C/C=C\CCCCCCC(=O)O[C@H](COC(=O)CCCCCCC/C=C\CCCCCCCC)COP(=O)([O-])OCC[N+](C)(C)C [PC(38:04)]
28 | 298.77 Å² | CCCCCCCCCCCCC=CC[C@@H](O)[C@H](CO[C@@H]1O[C@H](CO)[C@@H](O)C(O)C1O)NC(=O)CC=CCCCCCCCCCCCCCCCCCCCC (some centres not stated) [GlcCer(42:02)]
29 | 300.55 Å² | CCCCC/C=C\C/C=C\CCCCCCCCCC(=O)O[C@H](COC(=O)CCCCCCCCCCCCCCCCC)COP(=O)([O-])OCC[N+](C)(C)C [PC(38:02)]
30 | 288.69 Å² | CCCCCCCCCCCCC=CC[C@@H](O)[C@H](COP(=O)([O-])OCC[N+](C)(C)C)NC(=O)CCCCCCCCCCCCCCCCC [SM(36:01)]
31 | 284.26 Å² | CCCCCCCCCCCCC=CC[C@@H](O)[C@H](COP(=O)([O-])OCC[N+](C)(C)C)NC(=O)CCCCCCCCCCCCCCC [SM(34:01)]

same assay, conditions: [M+H-H2O]+; instrument: DT; stepped-field

Row | collision cross section (N2) | Structure (SMILES)
32 | 296.4 Å² | CCCCCCCCCCCCC=CC[C@@H](O)[C@H](CO[C@@H]1O[C@H](CO)[C@@H](O)C(O)C1O)NC(=O)CC=CCCCCCCCCCCCCCCCCCCCC (some centres not stated) [GlcCer(42:02)]
33 | 279.7 Å² | CCCCCCCCCCCCC=CC[C@@H](O)[C@H](CO)NC(=O)CC=CCCCCCCCCCCCCCCCCCCCCCC [Cer(44:02)]

same assay, conditions: [M+HCOO]-; instrument: DT; stepped-field

Row | collision cross section (N2) | Structure (SMILES)
34 | 298.03 Å² | CCCCC/C=C\C/C=C\C/C=C\CCCCCCC(=O)O[C@H](COC(=O)CCCCCCC/C=C\CCCCCCCC)COP(=O)([O-])OCC[N+](C)(C)C [PC(38:04)]
35 | 301.95 Å² | CCCCCCCCCCCCC=CC[C@@H](O)[C@H](CO[C@@H]1O[C@H](CO)[C@@H](O)C(O)C1O)NC(=O)CC=CCCCCCCCCCCCCCCCCCCCC (some centres not stated) [GlcCer(42:02)]
36 | 290.34 Å² | CCCCCCCCCCCCC=CC[C@@H](O)[C@H](COP(=O)([O-])OCC[N+](C)(C)C)NC(=O)CCCCCCCCCCCCCCCCC [SM(36:01)]
37 | 284.66 Å² | CCCCCCCCCCCCC=CC[C@@H](O)[C@H](COP(=O)([O-])OCC[N+](C)(C)C)NC(=O)CCCCCCCCCCCCCCC [SM(34:01)]

same assay, conditions: [M+H]+; instrument: DT; stepped-field

Row | collision cross section (N2) | Structure (SMILES)
38 | 302.3 Å² | CCCCCCCCCCCCCCCCCCCCCCCC(=O)N[C@@H](CO[C@@H]1O[C@H](CO)[C@@H](O)C(O)C1O)[C@H](O)CCCCCCCCCCCCCCC (some centres not stated) [GlcCer(42:00)]
39 | 265.93 Å² | CC/C=C\C/C=C\C/C=C\CCCCCCCC(=O)O[C@H](COC(=O)CCCCCCCCCCCCCCC)COP(=O)(O)OCCN [PE(34:03)]
40 | 287.73 Å² | CCCCC/C=C\C/C=C\C/C=C\C/C=C\CCCCCC(=O)O[C@H](COC(=O)CCCCCCC/C=C\C/C=C\CCCCC)COP(=O)(O)OC[C@H](N)C(=O)O [PS(40:06)]
41 | 283.39 Å² | CCCCCCCC/C=C\CCCCCCCC(=O)O[C@H](COC(=O)CCCCCCCCCCCCCCCCC)COP(=O)(O)OC[C@H](N)C(=O)O [PS(36:01)]
42 | 294.02 Å² | CCCCC/C=C\C/C=C\CCCCCCCCCCCC(=O)O[C@H](COC(=O)CCCCCCCCCCCCCCCCC)COP(=O)(O)OC[C@H](N)C(=O)O [PS(40:02)]
